How the values were obtained:
[1] = after five EtO sterilization cycles; polymeric articles; cited from earlier work
[2] = test system: Staphylococcus aureus (ATCC 29213); assay: Disc zone of inhibition on agar plates coated with S. aureus; assay type: cell-based; conditions: for zone of inhibition: disc containing 5 μg, agar plates coated with S. aureus ATCC 29213, 35° C. for 24 hours
Procedure: The ability of the compound of Formula II to inhibit growth of Staphylococcus aureus (ATCC 29213) was determined in vitro. Briefly, agar plates were coated with S. aureus and discs containing 5 μg of rifampin and 5 μg of a compound of Formula II were placed on the coated plates. The plates were incubated at 35° C. for 24 hours and the zones of inhibition of the rifampin and the compound of Formula II were determined. The zone of inhibition for the rifampin loaded disc was 28 mm. The zone of inhibition for the disc with a compound of Formula II was 18 mm.

[3] = test system: Staphylococcus aureus (ATCC 29213); assay: Minimum Inhibitory Concentration (MIC) evaluation; assay type: cell-based; conditions: ATCC29213, S. aureus, in vitro, read-out: Baseline MIC

## 5,6,9,17,19,21-Hexahydroxy-23-methoxy-2,4,12,16,18,20,22-heptamethyl-8-[N-(4-methyl-1-piperazinyl)formimidoyl]-2,7-(epoxypentadeca[1,11,13]trienimino)-naphtho[2,1-b]furan-1,11(2H)-dione 21-acetate [rifampin]
[1]
  rifampin recoverable: 5%
[2]
  zone of inhibition: 28 mm

## COC1/C=C/OC2(C)Oc3c(C)c(O)c4c(O)c(c(/C=N/N5CC[N+](C)(CC[O-])CC5)c(O)c4c3C2=O)NC(=O)/C(C)=C\C=C\C(C)C(O)C(C)C(O)C(C)C(OC(C)=O)C1C (centres unmarked) [compound of Formula II]
[3]
  MIC: 2 to 4 µg/mL
[2]
  zone of inhibition: 18 mm
[2]; qualitative statement in summary
  activity against Staphlococcus aureus: has activity
